The values that follow come from patent publication US20250073208A1, “IL-6 AND/OR IL-1BETA INHIBITOR” (AGC INC., priority 2022, published 2025).

The subject of one data set is IL-6 mRNA. In words: Quantitative RT-PCR analysis of IL-6 mRNA in whole lung of monocrotaline-induced pulmonary hypertension rats. Type of data set: in vivo, rat (male Sprague Dawley). The note with it: 2 mg/kg/day, 3 weeks, FIG. 7 left.
Data set [1] deals with rats with monocrotaline-induced pulmonary hypertension. In words: Pulmonary histopathological analysis in the monocrotaline-induced pulmonary hypertension rat model. Type of data set: in vivo, rat (male Sprague Dawley). The note with it: 2 mg/kg/day, 3 weeks. Here is the method:
According to the method described in Abe K, Circ Res, 94: 385-393, 2004, a monocrotaline (MCT)-induced pulmonary hypertension rat model was prepared. Monocrotaline (manufactured by Sigma Ltd. Aldrich) was subcutaneously injected once at a dose of 60 mg/kg to 5- to 6-week-old (body weight 150-200 g) male Sprague Dawley rats (SD rat). The compound of the present invention (KAG-308) was orally administered using a gavage needle at a dose of 1 mg/kg (2 mg/kg/day) twice daily from the day of subcutaneous injection of monocrotaline until the day before measurement (“MCT+KAG-308” in FIG. 1). The same amount of solvent (water for injection) was administered for the same period to the pulmonary hypertension rat model not treated with KAG-308 (“MCT” in FIG. 1). The normal control group, which was not administered monocrotaline and KAG-308, was of the same age (“Normal” in FIG. 1). Three weeks after monocrotaline injection, right ventricular systolic pressure, systemic arterial pressure, heart rate number, and right-to-left ventricular weight ratio (right ventricular hypertrophy) were measured. Under isoflurane inhalation anesthesia, right ventricular systolic pressure was measured by the right heart catheterization method. Using a conductance catheter, systemic arterial pressure and heart rate were measured from the carotid artery. After the measurement, the rats were euthanized with a lethal dose of intravenous pentobarbital, and the hearts were excised. The weight of the left ventricle (LV) including the ventricular septum (Sep) relative to the right ventricle (RV) was measured, and the ratio was used as an index of right ventricular hypertrophy. […]
Pulmonary arteries with an outer diameter of 50 to 100 μm were analyzed, and the mean medial wall thickness was measured in a blind manner (mean medial wall thickness=(outer diameter−inner diameter)/outer diameter).
Muscularization of small pulmonary arteries with an outer diameter of 50 μm or less was analyzed by immunostaining with anti-α-SMA (smooth muscular actin) antibody. According to the percentage of smooth muscle in the total circumference of the small pulmonary artery, they were defined as Non muscular (<25%), Partially muscular (25-75%), and Totally muscular (>75%), and at least 70 small pulmonary arteries of each specimen were evaluated in a blinded method.
Macrophages were measured by immunostaining using anti-CD68 antibody. The device used was a laser scanning microscope FV1200 IX83 (OLYMPUS), and observation was performed at a magnification of 400×, and CD68-positive cells were counted in 15 randomly selected fields mainly of small blood vessels.

A further data set deals with IL-1β mRNA. In words: Quantitative RT-PCR analysis of IL-1β mRNA in whole lung of monocrotaline-induced pulmonary hypertension rats. The format is in vivo, rat (male Sprague Dawley). The note with it: 2 mg/kg/day, 3 weeks, FIG. 7 right, result in words.
For data set [2], the system named is rats with monocrotaline-induced pulmonary hypertension. The data set can be described thus: Monocrotaline (MCT)-induced pulmonary hypertension rat model: haemodynamics and right ventricular hypertrophy. Type of data set: in vivo. The note with it: 3 weeks. How it is done:
According to the method described in Abe K, Circ Res, 94: 385-393, 2004, a monocrotaline (MCT)-induced pulmonary hypertension rat model was prepared. Monocrotaline (manufactured by Sigma Ltd. Aldrich) was subcutaneously injected once at a dose of 60 mg/kg to 5- to 6-week-old (body weight 150-200 g) male Sprague Dawley rats (SD rat). The compound of the present invention (KAG-308) was orally administered using a gavage needle at a dose of 1 mg/kg (2 mg/kg/day) twice daily from the day of subcutaneous injection of monocrotaline until the day before measurement (“MCT+KAG-308” in FIG. 1). The same amount of solvent (water for injection) was administered for the same period to the pulmonary hypertension rat model not treated with KAG-308 (“MCT” in FIG. 1). The normal control group, which was not administered monocrotaline and KAG-308, was of the same age (“Normal” in FIG. 1). Three weeks after monocrotaline injection, right ventricular systolic pressure, systemic arterial pressure, heart rate number, and right-to-left ventricular weight ratio (right ventricular hypertrophy) were measured. Under isoflurane inhalation anesthesia, right ventricular systolic pressure was measured by the right heart catheterization method. Using a conductance catheter, systemic arterial pressure and heart rate were measured from the carotid artery. After the measurement, the rats were euthanized with a lethal dose of intravenous pentobarbital, and the hearts were excised. The weight of the left ventricle (LV) including the ventricular septum (Sep) relative to the right ventricle (RV) was measured, and the ratio was used as an index of right ventricular hypertrophy.

For `Cc1cccc([C@@H](C)[C@H](O)/C=C/[C@@H]2[C@@H]3[C@H](C[C@H]2O)O/C(=C\CCCc2nnn[nH]2)C3(F)F)c1` [KAG-308, 4-[(Z)-(1S,5R,6R,7R)-6-[(1E,3R,4R)-3-hydroxy-4-(m-tolyl)-1-pentenyl]-7-hydroxy-2-oxa-4,4-difluoro-bicyclo[3.3.0]octan-3-ylidene]-1-(tetrazol-5-yl)butane], the “suppression of the increase in mRNA expression level of IL-6” value in the data set with IL-6 mRNA stood at 89%. Moreover, the “increase in mRNA expression level of IL-6” value in the data set with IL-6 mRNA (result in words) is “significantly suppressed”. For the same compound, the “increase in infiltration of inflammatory CD68-positive macrophages” value in data set [1] (lung, anti-CD68 immunostaining, 15 fields at 400×, FIG. 6) is on record as “significantly suppressed”. The “increase in average medial wall thickness of pulmonary artery” value in data set [1] (pulmonary arteries of outer diameter 50 to 100 μm, EVG staining, FIG. 4) is given as “significantly suppressed”. Also, the “non-muscular percentage of small pulmonary arteries” value in data set [1] (small pulmonary arteries of outer diameter 50 μm or less, anti-α-SMA immunostaining, non muscular <25%, FIG. 5) was “increased”. Moreover, the “totally muscular percentage of small pulmonary arteries” value in data set [1] (small pulmonary arteries of outer diameter 50 μm or less, anti-α-SMA immunostaining, totally muscular >75%, FIG. 5) is on record as “decreased”. Besides, the “increase in mRNA expression level of IL-1β” value in the data set on IL-1β mRNA is “significantly suppressed”. Moreover, the “increase in right ventricular systolic pressure (RVSP)” value in data set [2] (1 mg/kg orally twice daily (2 mg/kg/day), FIG. 2 left) is “significantly suppressed”. In addition, the “increase in weight ratio RV/LV+Sep (right ventricular hypertrophy)” value in data set [2] (1 mg/kg orally twice daily (2 mg/kg/day), FIG. 2 right) is reported as “significantly suppressed”. Moreover, the “left ventricular systolic pressure” value in data set [2] (2 mg/kg/day orally, FIG. 3 left) is given as “without affecting”. The heart rate entry in data set [2] (2 mg/kg/day orally, FIG. 3 right) is “without affecting”.
